Key:
c-MYC = experiment: Western blot analysis, c-MYC; assay type: cell-based; conditions: H358 cells, 3, 6, 9 μM, 24 hr
Description: (§1) The cell culture dish was placed in the ice and washed the cells with PBS. Then the PBS was removed to ensure that the cells were lysed in cell lysis buffer containing protease and phosphatase inhibitors. Adherent cells were scraped off from the plate and transferred the lysate into a new tube. The tube was maintained at a constant agitation for 15 min in the ice. Then the tubes were centrifuged at 4° C. 12000 g for 5 min. The supernatant was transferred into a new tube and 4× loading buffer was added to the supernatant. Each sample was boiled at 100° C. for 5 min. Equal amounts of protein (50 μg) were loaded into the wells of a SDS-PAGE gel, along with 3 μl markers. The gel was placed in transfer buffer in sandwich and was transferred to a nitrocellulose filter membrane. After transferring for 3 hr in an ice bucket at a constant current of 300 mA, the membranes were blocked in 5% non-fat milk in TBST at room temperature for 1 hr. The membrane was incubated overnight with the primary antibody solution, against the target protein at 4° C. The blot was rinsed 3 times within 5 min with TBST. The secondary antibody solution was incubated for 1 hr at room temperature. […]
(§2) To determine whether the induction of apoptosis in NSCLC cells was contributed by compound C620-0696-mediated growth inhibition, cleaved PARP1 in compound C620-0696 treated H358 cells was detected. […]

Cyclin D1 = experiment: Western blot analysis, cyclin D1; assay type: cell-based; conditions: H358 cells, 3, 6, 9 μM, 24 hr
Description: as §1, §2

A549 cells [1] = experiment: Wound healing assay; assay type: cell-based; conditions: 24 and 48 hours postinjury, versus control cells
Description: A549 cells were seeded onto 6 well plates. When the cell confluence reached about >90% and scratch wounds were made by scraping the cell layer across each plate using the tip of 200 μl pipette. Wounded cultures were incubated in medium for 48 hr, and then visualized by Olympus inverted microscopy to assess cell migration ability.
To evaluate the effect of C620-0696 on cell migration and cellular processes in NSCLC, the wound healing assay was employed to assess the directional cell motility in A549 cells.

bromodomain of BPTF = bromodomain of BPTF (Homo sapiens, UniProt Q12830); experiment: Kinetic binding analysis by biolayer interferometry
Description: The Octet Red96 system (Forte Bio, Pall) was used to determine the binding between compound C620-0696 and BPTF. BPTF protein was loaded to saturation onto anti-His capture sensors (ForteBio), then was placed for 2 min in wells containing C620-0696 (concentrations: 3.125, 6.25, 12.5, 25, 50, 100, 200 μM). The baseline and dissociation steps were carried out in the kinetics buffer as per the instrument manufacturer's recommendations. Kinetic binding data in all cases were adequately described accurately by a 1:1 binding model.
FIG. 2A is a graph 200 showing the binding affinity of the bromodomain of BPTF with compound C620-0696 by Biolayer interferometry assay (BLI). BLI is a label-free technology for measuring biomolecular interactions. The bromodomain was immobilized on the streptavidin (SA) biosensors, and then mixed with different concentration of compound C620-0696 at 3.125, 6.25, 12.5, 25, 50, 100, 200 μM.

PARP1 = experiment: Western blot analysis, cleaved PARP1; assay type: cell-based; conditions: H358 cells, 9 μM, 24 hr
Description: as §1, §2

A549 cells [2] = experiment: MTT assay cell viability; assay type: cell-based; conditions: Homo sapiens, 72 hr treatment
Description: (§3) A549 and H358 cell lines were stored in liquid nitrogen. A549 and H358 cells were cultured by RPMI 1640 medium after recovery. RPMI 1640 medium supplemented with 10% fetal bovine serum and 100 units/mL penicillin and 100 μg/mL streptomycin. A549 and H358 cells were grown at 37° C. incubator with 5% CO2.
(§4) All compounds were dissolved in dimethyl sulfoxide (DMSO) and stored at −40° C. HCC78 cells were plated in 96-well micro-plate and plated 3000 cells/well. Then the 96-well micro-plate was put back in the incubator and overnight for cell adhesion. After cell adhesion, the medium was removed and each well was added with 100 μl drug-containing medium. There were three different concentrations for each drug and three duplicate wells for each concentration. Then cell adhesion was cultured overnight for 72 hr. After 72 hr, each well was added with 10 μl of MTT solution and the 96-well plate was put back in the incubator for 4 hr. Then 100 μl of the SDS solution (10% SDS and 0.1 mM HCL) was added to each well and incubated at 37° C. for 4 hr. Finally the absorbance of the plate was measured by an absorbance reader (Tecan, Morrisvill, N.C., USA).
(§5) FIG. 3B is a graph 302 showing the effect of compound C620-0696 on the cell viability of A549 cells. A549 cells were treated by different concentrations of compound C620-0696, i.e. 3, 6, 9 and 12 μM for 72 hr. […]

H358 cells = experiment: MTT assay cell viability; assay type: cell-based; conditions: Homo sapiens, NCI-H358, 72 hr treatment
Description: as §3, §4, §5

A549 cells [3] = experiment: Colony formation assay; assay type: cell-based; conditions: A549 cells, 0.5, 1, 1.5 μM, 7 days, versus control group
Description: Cell survival was assessed by colony formation as previously described. A549 cells were seeded to six-well plate (500-1000/well). Then cells were exposed to various doses of compound C620-0696. After 7 days, colonies were fixed with 4% paraformaldehyde for 15 minutes and stained with crystal violet for 10-15 minutes. Finally, the staining solution was slowly washed off with water and the cells were air dried.
To determine the effect of the compound C620-0696 on A549 cell growth behavior, a colony formation assay was performed. A549 cells were treated by different concentrations of compound C620-0696, i.e. 0 (control group), 0.5, 1, 1.5 μM.

`CN(C)CCCNc1cc(NCc2ccco2)c2noc3c2c1C(=O)c1ccccc1-3` [compound C620-0696] was tested. Which “expression of c-MYC” value (c-MYC) did it give?
Its value is “suppressed the expression”.

What about the “expression of cyclin D1” value (Cyclin D1) of the same molecule?
Its value is “reduced the expression of cyclin D1”.

What about the “cell migration (wound healing)” value (A549 cells [1]) of the same molecule?
Its value is “migrated more slowly”.

What about the Koff (bromodomain of BPTF; 1:1 binding model) of the same molecule?
Its Koff is 1.70×10^−2 S^−1.

What about the Kd (bromodomain of BPTF; 3.125-200 μM, steady-state analysis, read-out: binding affinity KD) of the same molecule?
Its Kd is 35.5 µM.

What about the “levels of cleaved PARP1” value (PARP1) of the same molecule?
The value was “significantly increased”.

What about the IC50 (A549 cells [2]) of the same molecule?
Its IC50 is 11.2 µM.

And the IC50 (H358 cells)?
Its IC50 is 6.72 µM.

And the colony formation (A549 cells [3])?
Its colony formation is “significant loss of colony formation”.

— patent publication US10208028B1, “Methods of treating cancer” (Macau University of Science and Technology, priority 2017, dated 2019)
